From patent US20190135787A1, “PYRIMIDINE COMPOSITIONS, ULTRA-PURE COMPOSITIONS AND SALTS THEREOF, METHODS OF MAKING THE SAME, AND METHODS OF USING THE SAME FOR TREATING HISTAMINE H4 RECEPTOR (H4) MEDIATED DISEASES AND CONDITIONS” (Novartis AG, priority 2015, published 2019)

How the values were obtained:
[1] = Salt screen: physical stability under accelerated aging conditions (HT-XRPD); assay type: physicochemical; conditions: 40° C., 75% RH, two days, code+number = crystalline salt form, 0 = crystalline counter ion itself
Experimental: XRPD patterns were obtained using the Crystallics T2 high-throughput XRPD set-up. The plates were mounted on a Bruker General Area Detector Diffraction System (GADDS) equipped with a VANTEC-500 gas area detector corrected for intensity and geometric variations. The calibration of the measurement accuracy (peaks position) was performed using NIST SRM1976 standard (Corundum).
Data collection was carried out at room temperature using monochromatic CuKα radiation in the 2θ region between 1.5° and 41.5°, which is the most distinctive part of the XRPD pattern. The diffraction pattern of each well was collected in two 20 ranges (1.5°≤2θ≤21.5° for the first frame, and 19.5°≤2θ≤41.5° for the second) with an exposure time of 90s for each frame. No background subtraction or curve smoothing was applied to the XRPD patterns.
Approximately 175 mg of N^4-(cyclopropylmethyl)-6-[(3R)-3-(methylamino)pyrrolidin-1-yl]pyrimidine-2,4-diamine in 1-Butanol and Dichloromethane were combined with a slight molar excess of either solid or liquid counter ion. Samples were incubated at RT. After 5 days the solids were collected, dried under vacuum and analyzed by HT-XRPD (XRPD 1).
Subsequently, the solids were exposed to accelerated aging conditions (40° C., 75% RH) for two days and re-analyzed by HT-XRPD (XRPD 2). Crystalline salts (polymorphs) are indicated with the abbreviated counter ion code and a number (1, 2, etc.). The number zero (0) indicates the crystalline counter ion itself.

[2] = tested on: adult subjects with moderate to severe atopic dermatitis; assay: Phase 2a study in moderate to severe atopic dermatitis; assay type: in vivo, human; conditions: 8 weeks
Experimental: Following the phase 1 trials, a phase 2a trial was conducted to evaluate the efficacy of 8 weeks of treatment with 30 mg ZPL-389 administered once daily in adult subject with moderate to severe atopic dermatitis. The study was also designed to assess the safety and tolerability of ZPL-389 in adult subjects with moderate to severe atopic dermatitis.
This study was a randomized, double blind, placebo controlled, parallel group study of subjects having a pruritus Numerical Rating Scale (NRS) of ≥5 (0-10 scale), an Investigator's Global Assessment (IGA)≥3 (0-3 scale), and moderate-severe AD Eczema Area and Severity Index (EAST)≥12 and ≤48 (0-72 scale). In addition, subjective patient reported outcome instruments include: Ziarco Itch Diary (Electronic) Pruritus; 5D Pruritus Scale; Dermatology Life Quality Index (DLQI); and Patient Global Impression of Change (PGIG).
Each subject (aged 18-65 years) had one or more screening visits to confirm suitability to enter the study. 98 subjects with moderate to severe atopic dermatitis were randomized 2:1 to receive orally either 30 mg ZPL-389 or placebo once daily for eight weeks (56 days).
Efficacy endpoints for the trial include the following: • change from baseline in NRS for pruritus (worst itch) over 24 hours; • change from baseline in daytime NRS for pruritus (worst itch); • change from baseline in night time NRS for pruritus (worst itch); • change from baseline in NRS for sleep disturbance; • change from baseline in duration of itching; • change from baseline in verbal rating score for pruritus; • change from baseline in EASI score; • change from baseline in SCORAD score; • IGA score; • amount of rescue medication use; and/or • PGIC.

mild asthmatics = conditions: 36 mg, two single oral doses 12 hours apart; cited from earlier work
[3] = Phase 1 trials, single and multiple ascending doses; assay type: in vivo, human
Experimental: In phase 1 trials, 62 subjects were treated with ZPL-389.

[4] = Dynamic vapor sorption (DVS); assay type: physicochemical; conditions: 25° C.
Experimental: Moisture sorption isotherms were collected on a DVS-1 system from Surface Measurement Systems (London, UK). Typical sample size is between 5 and 10 mg of solid material. The relative humidity was cycled between 40% to 0% (desorption), up to 95% (sorption), back to 0% RH (desorption) and up to 95% RH (sorption) in steps of 10% at a constant temperature of 25° C. with an initial stabilizing step at 40% RH for 6 hours.

| Compound | XRPD2: solid form after accelerated aging ([1]; solid from 1-butanol) | XRPD2: solid form after accelerated aging ([1]; solid from dichloromethane) | also measured |
| --- | --- | --- | --- |
| O=C[C@H](O)[C@@H](O)[C@H](O)[C@H](O)C(=O)O [D-Glucuronic acid] | Amorphous | Amorphous |  |
| O=P(O)(O)O [Phosphoric acid] | Pho2 plus | Pho3 |  |
| CCCCCCCCCCCCCCCCCC(=O)O [Stearic acid] | Ste0 + Ste1 | Ste0 + Ste1 |  |
| Ethanesulfonic acid | Amorphous | Amorphous |  |
| (−)-L-Malic acid | Amorphous | Amorphous |  |
| CN[C@@H]1CCN(c2cc(NCC3CC3)nc(N)n2)C1 [ZPL-389, N^4-(cyclopropylmethyl)-6-[(3R)-3-(methylamino)pyrrolidin-1-yl]pyrimidine-2,4-diamine] |  |  | Treatment Emergent Adverse Events (TEAE) vs placebo ([2]; 30 mg once daily): no differences; rescue medication use vs placebo ([2]; 30 mg once daily): lower; tolerability / safety profile ([2]; 30 mg once daily, comparable to placebo): well tolerated; pruritus ([2]; 30 mg once daily, statistically significant compared to baseline): markedly reduced; IGA reduction ([2]; 30 mg orally once daily, placebo 25%): 36%; efficacy in mild asthma (mild asthmatics): no efficacy was observed; pharmacokinetics, dose dependence ([3]; phase 1 trials): dose-proportional pharmacokinetics; majority of observed adverse events ([3]; single doses 0.01-48 mg, 5, 15 and 50 mg once daily for 14 days): mild, transient, and non-dose related; tolerability ([3]; single doses 0.01-48 mg, 5, 15 and 50 mg once daily for 14 days, 62 subjects): safely tolerated |
| N[C@@H](CCC(=O)O)C(=O)O [Glutamic acid] | Gltm0 | Amorphous |  |
| Benzenesulfonic acid | Amorphous | Amorphous |  |
| O=S(=O)(O)CCS(=O)(=O)O [Ethane-1,2-disulfonic acid] | Eds1 + Eds2 | Eds1 |  |
| Citric acid | Amorphous | Amorphous |  |
| CC(=O)O [Acetic acid] | Amorphous | Amorphous |  |
| Maleic acid | Amorphous | Amorphous |  |
| O=C(O)c1cc(O)ccc1O [Gentisic acid] | Gen2 | Gen2 |  |
| O=C(O)[C@H](O)[C@@H](O)C(=O)O [(+)-L-Tartaric acid] | Amorphous | Amorphous |  |
| Fumaric acid | Amorphous | Fum0 + Fum3 |  |
| N[C@@H](CC(=O)O)C(=O)O [L-Aspartic acid] | Asp0 | Amorphous |  |

| Compound | XRPD2: solid form after accelerated aging ([1]; solid from 1-butanol) | XRPD2: solid form after accelerated aging ([1]; solid from dichloromethane) | also measured |
| --- | --- | --- | --- |
| CN[C@@H]1CCN(c2cc(NCC3CC3)nc(N)n2)C1.O.O.O=C(O)C(O)C(O)C(=O)O [Example 4, N^4-(cyclopropylmethyl)-6-[(3R)-3-(methylamino)pyrrolidin-1-yl]pyrimidine-2,4-diamine tartrate dihydrate] |  |  | total mass uptake ([4]; 20-30% RH): 6.9%; RH at which the dehydration step occurs during desorption [4]: below 10 % RH; water uptake (mass uptake) ([4]; between 0-20% RH): 1.9%; weight ([4]; between 30-90% RH): remains stable |
| Benzoic acid | Ben1 + Ben2 plus | Ben1 + Ben2 plus |  |
| O=C(O)[C@H](O)[C@@H](O)[C@H](O)[C@H](O)CO [Gluconic acid] | Amorphous | Amorphous |  |
| O=C(O)CNC(=O)c1ccccc1 [Hippuric acid] | Amorphous | Amorphous |  |
| Oxalic acid | Oxa3 | Oxa3 |  |
| Lactic acid | Amorphous | Amorphous |  |
| Br [Hydrobromic acid] | Amorphous | Amorphous |  |
| O=C(O)C(O)c1ccccc1 (racemic) [DL-Mandelic acid] | Amorphous | Amorphous |  |
| Cl [Hydrochloric acid] | Amorphous | Amorphous |  |
| O=S(=O)(O)c1ccc2ccccc2c1 [Naphtalene-2-sulfonic acid] | Nap1 + Nap0 | Amorphous |  |
| CS(=O)(=O)O [Methanesulfonic acid] | Amorphous | Amorphous |  |
| O=C(O)CCCC(=O)O [Glutaric acid] | Glut1 | Glut1 |  |
| CC(=O)Nc1ccc(C(=O)O)cc1 [4-acetamido-Benzoic acid] | ABen1 + ABen0 | ABen1 + ABen0 |  |
| O=C(O)c1ccccc1O [Salicylic acid] | Sal1 plus | Amorphous |  |
| O=S(=O)(O)O [Sulfuric acid] | Amorphous | Amorphous |  |
